# Results published in PubChem BioAssay AID1963835 (Molecular Pharmacology Branch, DTP, NCI, 2024).
# Several values for one entry are separate records, joined by “and”; a condition that tells them apart may be missing. Identical values can stand only once.
# Tested on: 699152-130-R-J1-PDC complex spheroid viability
# Assay: Anticancer human tumor 699152-130-R-J1-PDC patient-derived pancreatic carcinoma cell line growth inhibition [POLQ]
# Conditions: for viability, T/C: stronger effect = lower value
# Experimental: Multicellular complex tumor spheroid response to Polymerase (POL) inhibitors (novobiocin, ART-558, RP6685) in combination with a variety of drugs and investigational agents in selected tumor cell lines
# The POL inhibitors (novobiocin, ART-558, and RP6685) were evaluated both individually and in combination with standard of care and investigational anticancer small molecules within a complex spheroid model of solid tumors. . Complex spheroids include a stromal component modeled by human endothelial cells (HUVEC) and fibroblasts modeled by human mesenchymal stem cells (MSCs). The concentration ranges selected for each drug and investigational agent were based upon clinically achievable concentrations if the clinical Cmax of the agent was known.
# Compounds. The drugs and investigational agents: novobiocin (NSC847541), ART-558 (NSC835418), RP-6685 (NSC848927), peposertib (NSC802822), ceralasertib (NSC780249), elimusertib (NSC800525), camonsertib (NSC841442), AZD-1390 (NSC803789), olaparib (NSC753686), talazoparib (NSC767125), rucaparib (NSC756644), sotorasib (NSC818433), MRTX-1133 (NSC836407), SN-38 (NSC673596), topotecan (NSC609699), epotoside (NSC141540), doxorubicin (NSC123127), gemcitabine (NSC613327), 5-fluorouracil (NSC19893), paclitaxel (NSC125973), vemurafenib (NSC761431), MSA-2 (NSC828583), SN-011 (NSC837082), adavosertib (NSC754352), prexasertib (NSC758257), carboplatin (NSC241240) and oxaliplatin (NSC266046), were obtained from the National Cancer Institute (NCI) Developmental Therapeutics Program Chemical Repository (21). The FDA-approved anticancer drug set is available from the Developmental Therapeutics Program at https://dtp.cancer.gov/organization/dscb/obtaining/. […] The stock solutions were prepared in dimethyl sulfoxide (DMSO, Sigma-Aldrich, St. Louis, MO, cat. D2650), except for the platinum compounds which were prepared in saline (Quality Biological, Gaithersburg, MD, cat. 114-055-101), at 800-fold the tested concentration and stored at -70 degrees C prior to their use. All drugs and investigational agents were tested over a range starting from a high concentration at or near the clinical Cmax and decreasing in half-log increments. If the clinical Cmax for an agent had not been determined, the highest concentration tested was 10 microM, except for SN-38, which was tested at a high concentration of 1 microM.
# Cell Culture. All cells were maintained in an incubator at 37 degrees C and 5% CO2 with 95% humidity. The PDC lines were cultured according to standard operating procedures established by the NCI PDMR (https://pdmr.cancer.gov). Table 3 of the manuscript, lists the cell lines along with the number of the three cell types plated to form the mct-spheroids and media for tumor cell growth. After thawing, all PDC lines, except 997537-175-T-J1-PDC and 415267-285-R-J2-PDC, were cultured in Matrigel-coated flasks prepared with a working solution of 1X Ham's F-12 nutrient mix, without supplementation (Thermo Fisher Scientific, cat. 11765054), 100 U/mL penicillin-streptomycin (Thermo Fisher Scientific, cat. 15140122), and 2.5% Matrigel (Corning Inc., Corning, NY, cat. 354248) for the first three passages. The two PDC lines 997537-175-T-J1-PDC and 415267-285-R-J2-PDC were cultured on uncoated flasks. The 857933-349-R-J2-PDC line was cultured in 6C/Colon 1B media containing advanced DMEM/F-12 (Thermo Fisher Scientific, cat. 12634028), 10 mM HEPES (Thermo Fisher Scientific, cat. 15630080), 1X GlutaMAX supplement (Thermo Fisher Scientific, cat. 35050061), 0.1 mg/mL primocin (InvivoGen, San Diego, CA, cat. ant-pm-2), 10% defined fetal bovine serum, heat inactivated (HyClone Laboratories Inc., Logan, UT, cat. SH30070.03HI), 50% L-WRN conditioned media (ATCC, cat. CRL-3276), 1.25 mM N-Acetyl-L-cysteine (Sigma-Aldrich, cat. A9165), 10 mM nicotinamide (Sigma-Aldrich, cat. N0636), 1X B-27 supplement (Thermo Fisher Scientific, cat. 17504044), 1X N-2 supplement (Thermo Fisher Scientific, cat. […]
# 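Further: spheroids exposed to agents for 7 days before viability reading.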
# 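Wherever viability, T/C is given: percent of DMSO vehicle control viability so 100% = vehicle and 0% = no viable signal.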
structure (smiles),measurement,setting,value
COc1cccc(OCCCN)c1-c1cc(Nc2cnc(C#N)cn2)n[nH]1,"viability, T/C",compound 0.00316 µM,94% and 98.1% and 84.3%
same,"viability, T/C",compound 0.01 µM,84.5% and 83.7% and 91.9%
same,"viability, T/C",compound 0.0316 µM,66% and 60% and 74.3%
same,"viability, T/C",compound 0.1 µM,56.1% and 57.8% and 62.7%
same,"viability, T/C",compound 0.316 µM,55.3% and 56.8% and 60.6%
same,"viability, T/C",compound 1 µM,50.4% and 52.5% and 58.4%
same,IC50,curve of compound,> 1 µM
CNCc1ccc(-c2[nH]c3cc(F)cc4c3c2CCNC4=O)cc1,"viability, T/C",compound 0.0316 µM,96.2% and 95.6% and 99%
same,"viability, T/C",compound 0.1 µM,99.8% and 91.1% and 101%
same,"viability, T/C",compound 0.316 µM,118% and 90.3% and 99.8%
same,"viability, T/C",compound 1 µM,106% and 108% and 112%
same,"viability, T/C",compound 3.16 µM,119% and 117% and 138%
same,"viability, T/C",compound 10 µM,111% and 109% and 130%
same,IC50,curve of compound,> 10 µM
CCc1c2c(nc3ccc(O)cc13)-c1cc3c(c(=O)n1C2)COC(=O)[C@]3(O)CC + Nc1ccc(C#CCN(C(=O)Cc2ncc(C(F)(F)F)cc2C(F)(F)F)c2ccc(F)cc2)nn1,IC50,"curve of first compound, second compound 0.0316 µM",0.0602 µM
same,IC50,"curve of first compound, second compound 0.1 µM",0.0483 µM
same,IC50,"curve of first compound, second compound 0.316 µM",0.0668 µM
same,IC50,"curve of first compound, second compound 1 µM",0.0363 µM
same,IC50,"curve of first compound, second compound 3.16 µM",0.0555 µM
same,IC50,"curve of first compound, second compound 10 µM",0.0495 µM
same,"viability, T/C","second compound 0.0316 µM, first compound 0.00316 µM",82.1%
same,"viability, T/C","second compound 0.0316 µM, first compound 0.01 µM",55.2%
same,"viability, T/C","second compound 0.0316 µM, first compound 0.0316 µM",58.4%
same,"viability, T/C","second compound 0.0316 µM, first compound 0.1 µM",47.2%
same,"viability, T/C","second compound 0.0316 µM, first compound 0.316 µM",36.4%
same,"viability, T/C","second compound 0.0316 µM, first compound 1 µM",11.4%
same,"viability, T/C","second compound 0.1 µM, first compound 0.00316 µM",83.1%
same,"viability, T/C","second compound 0.1 µM, first compound 0.01 µM",57.4%
same,"viability, T/C","second compound 0.1 µM, first compound 0.0316 µM",52%
same,"viability, T/C","second compound 0.1 µM, first compound 0.1 µM",48.3%
same,"viability, T/C","second compound 0.1 µM, first compound 0.316 µM",32.6%
same,"viability, T/C","second compound 0.1 µM, first compound 1 µM",12.6%
same,"viability, T/C","second compound 0.316 µM, first compound 0.00316 µM",72.7%
same,"viability, T/C","second compound 0.316 µM, first compound 0.01 µM",61.6%
same,"viability, T/C","second compound 0.316 µM, first compound 0.0316 µM",55.8%
same,"viability, T/C","second compound 0.316 µM, first compound 0.1 µM",47.1%
same,"viability, T/C","second compound 0.316 µM, first compound 0.316 µM",32%
same,"viability, T/C","second compound 0.316 µM, first compound 1 µM",8.12%
same,"viability, T/C","second compound 1 µM, first compound 0.00316 µM",74.7%
same,"viability, T/C","second compound 1 µM, first compound 0.01 µM",55.2%
same,"viability, T/C","second compound 1 µM, first compound 0.0316 µM",51.2%
same,"viability, T/C","second compound 1 µM, first compound 0.1 µM",44.3%
same,"viability, T/C","second compound 1 µM, first compound 0.316 µM",30.5%
same,"viability, T/C","second compound 1 µM, first compound 1 µM",14.9%
same,"viability, T/C","second compound 3.16 µM, first compound 0.00316 µM",88.7%
same,"viability, T/C","second compound 3.16 µM, first compound 0.01 µM",66.4%
same,"viability, T/C","second compound 3.16 µM, first compound 0.0316 µM",54.4%
same,"viability, T/C","second compound 3.16 µM, first compound 0.1 µM",48.5%
same,"viability, T/C","second compound 3.16 µM, first compound 0.316 µM",29.6%
same,"viability, T/C","second compound 3.16 µM, first compound 1 µM",10.8%
same,"viability, T/C","second compound 10 µM, first compound 0.00316 µM",92.2%
same,"viability, T/C","second compound 10 µM, first compound 0.01 µM",71.2%
same,"viability, T/C","second compound 10 µM, first compound 0.0316 µM",52.2%
same,"viability, T/C","second compound 10 µM, first compound 0.1 µM",44.2%
same,"viability, T/C","second compound 10 µM, first compound 0.316 µM",27.7%
same,"viability, T/C","second compound 10 µM, first compound 1 µM",9.98%
C=CCn1c(=O)c2cnc(Nc3ccc(N4CCN(C)CC4)cc3)nc2n1-c1cccc(C(C)(C)O)n1,"viability, T/C",compound 0.00316 µM,103% and 97% and 105%
same,"viability, T/C",compound 0.01 µM,104% and 91.6% and 100%
same,"viability, T/C",compound 0.0316 µM,88.6% and 89.3% and 105%
same,"viability, T/C",compound 0.1 µM,96.8% and 92.2% and 110%
same,"viability, T/C",compound 0.316 µM,90.3% and 78.7% and 84.2%
same,"viability, T/C",compound 1 µM,74.6% and 69.8% and 72.5%
same,IC50,curve of compound,> 1 µM
